By inhibition is commonly meant the drop in the measured response relative to a control, in per cent. Higher therefore signals strong suppression. Usually Km stands for the substrate concentration at which the rate is half of its maximum.

The text below walks through data of ChEMBL document CHEMBL1159147, “4-(2-PYRTOYL)-5-phenylthiazoles as novel non-bicyclic reversible inhibitors of the gastric H+/K+-atpase” (Bioorg Med Chem Lett, 1995).

Data set [1] deals with Potassium-transporting ATPase alpha chain 1 (Sus scrofa) (UniProt P19156). Kind of data set: Ability to inhibit H+/K+ stimulated ATPase activity in lympholised gastric vesicles at 100 uM concentration. It counts as tissue-based. The following applies: Stomach.
The target is the same in data set [2]. Kind of data set: Ability to inhibit H+/K+ stimulated ATPase activity in lympholised gastric vesicles at 30 uM concentration. Type of data set: tissue-based. The settings on record: Stomach.
The test system of another data set is Rattus norvegicus. Briefly: Compound was tested in vivo for its ability to inhibit pentagastrin-stimulated gastric acid secretion in the anesthetized lumen perfused rat at 10 umol/kg iv; insoluble. It counts as functional, organism-based. The settings on record: Stomach.
Data set [3] deals with CCCc1nc(-c2cc(N)ccn2)c(-c2ccccc2C)s1. Kind of data set: Km was determined.
For data set [4] the test system is unchanged. Kind of data set: Vmax was determined.

Chain of Potassium-transporting ATPase alpha chain 1 (Sus scrofa) (P19156 whole entry): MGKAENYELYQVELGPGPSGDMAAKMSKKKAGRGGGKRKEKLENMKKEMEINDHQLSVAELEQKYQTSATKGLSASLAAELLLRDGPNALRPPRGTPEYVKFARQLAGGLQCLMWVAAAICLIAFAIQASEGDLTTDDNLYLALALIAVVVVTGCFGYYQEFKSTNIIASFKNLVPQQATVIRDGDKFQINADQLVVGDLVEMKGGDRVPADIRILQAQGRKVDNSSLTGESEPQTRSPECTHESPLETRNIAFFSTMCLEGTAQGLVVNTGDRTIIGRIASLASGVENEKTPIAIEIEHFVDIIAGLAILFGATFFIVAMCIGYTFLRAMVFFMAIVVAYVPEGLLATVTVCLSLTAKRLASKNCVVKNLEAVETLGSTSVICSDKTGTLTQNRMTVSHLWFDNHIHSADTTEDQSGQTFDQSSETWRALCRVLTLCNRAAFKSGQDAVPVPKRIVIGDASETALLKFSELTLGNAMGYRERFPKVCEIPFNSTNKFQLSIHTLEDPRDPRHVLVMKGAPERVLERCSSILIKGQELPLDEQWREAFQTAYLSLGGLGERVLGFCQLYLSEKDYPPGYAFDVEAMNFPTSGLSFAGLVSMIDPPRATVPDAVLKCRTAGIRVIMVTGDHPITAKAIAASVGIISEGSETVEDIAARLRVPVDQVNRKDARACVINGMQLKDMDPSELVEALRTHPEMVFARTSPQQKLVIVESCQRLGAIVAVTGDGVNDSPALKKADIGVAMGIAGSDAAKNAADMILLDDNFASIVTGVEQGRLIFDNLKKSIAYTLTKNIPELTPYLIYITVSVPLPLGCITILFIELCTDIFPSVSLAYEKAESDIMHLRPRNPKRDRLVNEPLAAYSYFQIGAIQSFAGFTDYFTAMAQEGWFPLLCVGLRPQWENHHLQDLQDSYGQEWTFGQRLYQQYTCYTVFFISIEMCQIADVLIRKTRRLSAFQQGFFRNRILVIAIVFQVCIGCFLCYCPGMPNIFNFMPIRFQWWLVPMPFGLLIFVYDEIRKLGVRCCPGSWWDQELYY
Chain of Potassium-transporting ATPase alpha chain 1 (Sus scrofa), P19156 (P19156 whole entry): as above

In data set [1], `CCCc1nc(-c2ccccc2C)c(-c2ccccn2)[nH]1` came in with an inhibition of 67%.

`Cc1nc(-c2ccccn2)c(-c2ccccc2C)s1` registered an inhibition in data set [1] of 48%.

As for `CCCc1ncc(-c2ccccc2C)c(-c2ccccn2)n1`, in data set [2], the inhibition worked out at 23%.

With `Cc1ccccc1-c1nc(-c2ccccn2)c(-c2ccccc2C)s1`, the inhibition result with Rattus norvegicus is on record as “Insoluble”.

For the compound “Potassium-transporting ATPase alpha chain 1 (Sus scrofa), P19156”, the Km in data set [3] was found to be 560 µM. Also, the Vmax in data set [4] was 0.636 IU mg-1.
